Source: publication PMC12396409, “Screening and hit evaluation of a microbial metabolite library against the pathogenic Plasmodium falciparum and Toxoplasma gondii parasites” (International Journal for Parasitology: Drugs and Drug …, 2025)
Like-named read-outs stand apart in the source and are kept apart here.

What was measured:
[1] = test system: P. falciparum 3D7 parasites; test: P. falciparum growth inhibition assay, 1-cycle (72 h treatment), SYBR DNA staining (library screen at 2 μg/mL and dose-response); assay type: cell-based, Plasmodium falciparum; conditions: for activity at 2 µg/mL: Plasmodium falciparum
[2] = test system: T. gondii RH strain (RH-Tub-eYFP) tachyzoites; test: microbe, parasite or virus in culture; assay type: cell-based, Toxoplasma gondii; conditions: 72 h; for percent parasite growth at 2 µg/mL: Toxoplasma gondii
[3] = test system: P. falciparum 3D7 parasites; test: P. falciparum growth inhibition assay, 2-cycle (120 h treatment), delayed-death screen and dose-response; assay type: cell-based, Plasmodium falciparum; conditions: for activity at 2 µg/mL: Plasmodium falciparum
[4] = P. falciparum, 72 h, parasite screen 2 μg/mL, % growth, replicate 1
[5] = P. falciparum, 72 h, parasite screen 2 μg/mL, % growth, replicate 2
[6] = T. gondii, parasite screen 2 μg/mL, % growth, replicate 1
[7] = T. gondii, parasite screen 2 μg/mL, % growth, replicate 2
[8] = P. falciparum, 120 h, parasite screen 2 μg/mL, % growth, replicate 1
[9] = P. falciparum, 120 h, parasite screen 2 μg/mL, % growth, replicate 2
[10] = library screen at 2 μg/mL, % growth, replicate 1, read-out: Tg_72h_%Growth_Rep1
[11] = library screen at 2 μg/mL, % growth, replicate 2, read-out: Tg_72h_%Growth_Rep2
[12] = library screen at 2 μg/mL, 72 h, % growth, replicate 1
[13] = library screen at 2 μg/mL, 72 h, % growth, replicate 2
[14] = library screen at 2 μg/mL, % growth, replicate 1
[15] = library screen at 2 μg/mL, % growth, replicate 2
[16] = library screen at 2 μg/mL, 120 h, % growth, replicate 1
[17] = library screen at 2 μg/mL, 120 h, % growth, replicate 2
[18] = P. falciparum 3D7, 72 h, library screen at 2 μg/mL, % growth, replicate 1
[19] = P. falciparum 3D7, 72 h, library screen at 2 μg/mL, % growth, replicate 2
[20] = T. gondii RH, library screen at 2 μg/mL, % growth, replicate 1
[21] = T. gondii RH, library screen at 2 μg/mL, % growth, replicate 2
[22] = P. falciparum 3D7, 120 h, library screen at 2 μg/mL, % growth, replicate 1
[23] = P. falciparum 3D7, 120 h, library screen at 2 μg/mL, % growth, replicate 2

Compound: CC(/C=C/[C@H](O)[C@@H](C)/C=C/C(=O)O)=C\C[C@H]1O[C@]2(CC[C@@H]1C)CC[C@@](CCC(C)C)(OC(=O)CCC(=O)O)[C@H](/C=C/C(C)=C/C(=O)O)O2 [Reveromycin C]
- Pf_72h_%Growth_Rep1 [1, 4]: 86.43%
- Pf_72h_%Growth_Rep2 [1, 5]: 70.33%
- Tg_72h_%Growth_Rep1 [2, 6]: 140.65%
- Tg_72h_%Growth_Rep2 [2, 7]: 73.99%
- Pf_120h_%Growth_Rep1 [3, 8]: 71.01%
- Pf_120h_%Growth_Rep2 [3, 9]: 60.10%

Compound: CC[C@@H]1C[C@H]2CC[C@H](O2)[C@H](C)C(=O)O[C@@H](C)C[C@@H]2CC[C@@H](O2)[C@@H](C)C(=O)O[C@H](CC)C[C@H]2CC[C@H](O2)[C@H](C)C(=O)O[C@@H](C)C[C@@H]2CC[C@@H](O2)[C@@H](C)C(=O)O1 [Dinactin]
- activity at 2 µg/mL ([1]; 3D7, 72 h, library screen at 2 μg/mL, 72 h, % growth, replicate 1, read-out: Pf_72h_%Growth_Rep1): 3.66%
- activity at 2 µg/mL ([1]; 3D7, 72 h, library screen at 2 μg/mL, 72 h, % growth, replicate 2, read-out: Pf_72h_%Growth_Rep2): -1.84%
- percent parasite growth at 2 µg/mL [2, 10]: 5.15%
- percent parasite growth at 2 µg/mL [2, 11]: 2.32%
- activity at 2 µg/mL ([3]; 3D7, 120 h, library screen at 2 μg/mL, 120 h, % growth, replicate 1, read-out: Pf_120h_%Growth_Rep1): 15.7%
- activity at 2 µg/mL ([3]; 3D7, 120 h, library screen at 2 μg/mL, 120 h, % growth, replicate 2, read-out: Pf_120h_%Growth_Rep2): 11%

Compound: CO[C@H]1C[C@@H]2CC[C@@H](C)[C@@](O)(O2)C(=O)C(=O)N2CCCC[C@H]2C(=O)O[C@H]([C@H](C)C[C@@H]2CC[C@@H](OCCO)[C@H](OC)C2)CC(=O)[C@H](C)/C=C(\C)[C@@H](O)[C@@H](OC)C(=O)[C@H](C)C[C@H](C)/C=C/C=C/C=C/1C [Everolimus]
- activity at 2 µg/mL ([1]; 3D7, library screen at 2 μg/mL, 72 h, % growth, replicate 1, read-out: Pf_72h_%Growth_Rep1): 71.5%
- activity at 2 µg/mL ([1]; 3D7, library screen at 2 μg/mL, 72 h, % growth, replicate 2, read-out: Pf_72h_%Growth_Rep2): 67.8%
- percent parasite growth at 2 µg/mL [2, 10]: 40.6%
- percent parasite growth at 2 µg/mL [2, 11]: 79.1%
- activity at 2 µg/mL ([3]; 3D7, library screen at 2 μg/mL, 120 h, % growth, replicate 1, read-out: Pf_120h_%Growth_Rep1): 72.3%
- activity at 2 µg/mL ([3]; 3D7, library screen at 2 μg/mL, 120 h, % growth, replicate 2, read-out: Pf_120h_%Growth_Rep2): 69.3%

Compound: C=C1NC(=O)c2nc(oc2C)C(=C)NC(=O)[C@H](C(C)(C)O)NC(=O)C(=C)NC(=O)c2nc(oc2C)/C(=C/C)NC(=O)[C@H]([C@@H](C)O)NC(=O)c2csc(n2)-c2ccc(C(N)=O)nc2-c2coc(n2)C(=C)NC1=O [Berninamycin D]
- Pf_72h_%Growth_Rep1 [1, 12]: 102.21%
- Pf_72h_%Growth_Rep2 [1, 13]: 89.93%
- Tg_72h_%Growth_Rep1 [2, 14]: 81.74%
- Tg_72h_%Growth_Rep2 [2, 15]: 94.54%
- Pf_120h_%Growth_Rep1 [3, 16]: 147.66%
- Pf_120h_%Growth_Rep2 [3, 17]: 98.89%

Compound: CC(=O)NCCc1c[nH]c2ccccc12 [Acetyltryptamine, N-]
- Pf_72h_%Growth_Rep1 [1, 12]: 83.66%
- Pf_72h_%Growth_Rep2 [1, 13]: 90.45%
- Tg_72h_%Growth_Rep1 [2, 14]: 109.38%
- Tg_72h_%Growth_Rep2 [2, 15]: 85.68%
- Pf_120h_%Growth_Rep1 [3, 16]: 84.03%
- Pf_120h_%Growth_Rep2 [3, 17]: 87.17%

Compound: COc1cc(C(=O)O)c2c(c1C)OC(=O)c1c(C)cc(O)c(C=O)c1O2 [Psoromic acid]
- activity at 2 µg/mL ([1]; 3D7, P. falciparum, 72 h, parasite screen 2 μg/mL, % growth, replicate 1, read-out: Pf_72h_%Growth_Rep1): 92.3%
- activity at 2 µg/mL ([1]; 3D7, P. falciparum, 72 h, parasite screen 2 μg/mL, % growth, replicate 2, read-out: Pf_72h_%Growth_Rep2): 123%
- percent parasite growth at 2 µg/mL ([2]; T. gondii, parasite screen 2 μg/mL, % growth, replicate 1, read-out: Tg_72h_%Growth_Rep1): 127%
- percent parasite growth at 2 µg/mL ([2]; T. gondii, parasite screen 2 μg/mL, % growth, replicate 2, read-out: Tg_72h_%Growth_Rep2): 82.8%
- activity at 2 µg/mL ([3]; 3D7, P. falciparum, 120 h, parasite screen 2 μg/mL, % growth, replicate 1, read-out: Pf_120h_%Growth_Rep1): 90.8%
- activity at 2 µg/mL ([3]; 3D7, P. falciparum, 120 h, parasite screen 2 μg/mL, % growth, replicate 2, read-out: Pf_120h_%Growth_Rep2): 141%

Compound: CCCN1C[C@H](C)[C@@H](O)[C@](C)(O)[C@@H](CC)OC(=O)[C@H](C)[C@@H](O[C@H]2C[C@@](C)(OC)[C@@H](O)[C@H](C)O2)[C@H](C)[C@@H](O[C@@H]2O[C@H](C)C[C@H](N(C)C)[C@H]2O)[C@](C)(O)C[C@H]1C [Gamithromycin, reference compound]
- 1) Growth (%) at 72 h ([1]; P. falciparum, 2 μg/mL, 72 h): 58.53%
- Pf_72h_%Growth_Rep1 [1, 12]: 42.98%
- Pf_72h_%Growth_Rep2 [1, 13]: 74.08%
- Tg_72h_%Growth_Rep1 [2, 14]: 33.80%
- Tg_72h_%Growth_Rep2 [2, 15]: 38.81%
- 2) Growth (%) at 120 h ([3]; P. falciparum, 2 μg/mL, 120 h): 15.46%
- 3) Fold change (72 h/120 h) ([3]; P. falciparum, growth at 72 h / growth at 120 h, 2 μg/mL): 3.8
- Pf_120h_%Growth_Rep1 [3, 16]: 12.20%
- Pf_120h_%Growth_Rep2 [3, 17]: 18.72%

Compound: COC1=C(OC)C(=O)[C@@H](C)[C@H](C)C1=O [BIA-G1680]
- Pf_72h_%Growth_Rep1 [1, 18]: 4.48%
- Pf_72h_%Growth_Rep2 [1, 19]: 3.13%
- Tg_72h_%Growth_Rep1 [2, 20]: 146.51%
- Tg_72h_%Growth_Rep2 [2, 21]: 97.35%
- Pf_120h_%Growth_Rep1 [3, 22]: 27.26%
- Pf_120h_%Growth_Rep2 [3, 23]: 12.29%

Compound: COc1ccc2c3c([nH]c2c1)C(C)(C)C=CN1C(=O)[C@H](C)NC(=O)/C1=C/3 [Cycloechinulin]
- Pf_72h_%Growth_Rep1 ([1]; P. falciparum, 72 h, screen at 2 μg/mL, replicate 1): 63.19%
- Pf_72h_%Growth_Rep2 ([1]; P. falciparum, 72 h, screen at 2 μg/mL, replicate 2): 64.05%
- Tg_72h_%Growth_Rep1 ([2]; T. gondii, screen at 2 μg/mL, replicate 1): 136.66%
- Tg_72h_%Growth_Rep2 ([2]; T. gondii, screen at 2 μg/mL, replicate 2): 103.07%
- Pf_120h_%Growth_Rep1 ([3]; P. falciparum, 120 h, screen at 2 μg/mL, replicate 1): 51.02%
- Pf_120h_%Growth_Rep2 ([3]; P. falciparum, 120 h, screen at 2 μg/mL, replicate 2): 53.71%

Compound: CCC(C)C1OC2(CCC1C)CC1CC(CC=C(C)C(OC3CC(OC)C(OC4CC(OC)C(O)C(C)O4)C(C)O3)C(C)C=CC=C3COC4C(O)C(C)C=C(C(=O)O1)C34O)O2 (centres unmarked) [BIA-I1581]
- Pf_72h_%Growth_Rep1 [1, 18]: 5.59%
- Pf_72h_%Growth_Rep2 [1, 19]: 2.07%
- Tg_72h_%Growth_Rep1 [2, 20]: 33.19%
- Tg_72h_%Growth_Rep2 [2, 21]: 43.03%
- Pf_120h_%Growth_Rep1 [3, 22]: 16.87%
- Pf_120h_%Growth_Rep2 [3, 23]: 11.19%

Compound: CCCCCC(=O)NC1CCOC1=O (centres unmarked) [BIA-H1495]
- Pf_72h_%Growth_Rep1 [1, 18]: 85.11%
- Pf_72h_%Growth_Rep2 [1, 19]: 87.66%
- Tg_72h_%Growth_Rep1 [2, 20]: 133.00%
- Tg_72h_%Growth_Rep2 [2, 21]: 97.80%
- Pf_120h_%Growth_Rep1 [3, 22]: 97.98%
- Pf_120h_%Growth_Rep2 [3, 23]: 95.38%

Compound: CCCCC(C)C=C(C)C=C(C)C(=O)NC1=CC(O)(C=CC=CC=CC(=O)NC2=C(O)CCC2=O)C2OC2C1=O (centres unmarked) [BIA-M1905]
- Pf_72h_%Growth_Rep1 [1, 18]: 81.84%
- Pf_72h_%Growth_Rep2 [1, 19]: 57.54%
- Tg_72h_%Growth_Rep1 [2, 20]: 110.20%
- Tg_72h_%Growth_Rep2 [2, 21]: 85.96%
- Pf_120h_%Growth_Rep1 [3, 22]: 83.56%
- Pf_120h_%Growth_Rep2 [3, 23]: 90.34%

Compound: O=c1c2cccn2c(=O)c2cccn12 [Pyrocoll]
- Pf_72h_%Growth_Rep1 [1, 4]: 84.60%
- Pf_72h_%Growth_Rep2 [1, 5]: 82.90%
- Tg_72h_%Growth_Rep1 [2, 6]: 94.37%
- Tg_72h_%Growth_Rep2 [2, 7]: 83.97%
- Pf_120h_%Growth_Rep1 [3, 8]: 85.16%
- Pf_120h_%Growth_Rep2 [3, 9]: 138.60%

Compound: CC[C@H]1CCC[C@H](O)[C@@H](C)C(=O)C2=C[C@H]3[C@@H]4C[C@H](O)C[C@H]4CC[C@H]3[C@@H]2CC(=O)O1 [Dihydrospinosyn A aglycone]
- IC50 ([1]; 3D7, 72 h treatment, mean ± S.D., n ≥ 3, read-out: IC50 (μM), P. falciparum): > 1 µM
- Screen (P. falciparum) ([1]; library screen at 2 μg/mL, 3D7, 72 h, DD from the 120 h timepoint): I
- Pf_72h_%Growth_Rep1 [1, 12]: 96.92%
- Pf_72h_%Growth_Rep2 [1, 13]: 105.46%
- Tg_72h_%Growth_Rep1 [2, 14]: 141.87%
- Tg_72h_%Growth_Rep2 [2, 15]: 82.63%
- Pf_120h_%Growth_Rep1 [3, 16]: 88.50%
- Pf_120h_%Growth_Rep2 [3, 17]: 102.89%
